How the values were obtained:
Experiment in all cases: Bliss excess, mean over the matrix (fraction); higher = more synergy
[1] = system: UM-UC-3 (Bladder Carcinoma)
Procedure, shortened: (§1)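 Cell lines in DMEM/F12 or RPMI with 10% FBS were plated in 1536-well plates, held 24 hours at 37°C, 5% CO2, then given two-drug dose matrices for 72 hours (DMSO typically 0.2%). Viability was read by CellTiter-Glo 2.0 luminescence and scaled as inhibition from 0 (vehicle wells) to 1 (blank wells). Combination Emax is the second-highest inhibition in the matrix; Bliss excess is observed combination effect minus expected EA + EB − EA·EB, EA and EB being single-agent effects.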

ES4 (Ewing's Sarcoma) = system: ES4 (Ewing's Sarcoma)
Procedure, shortened: as §1

[2] = system: CAL-148 (Breast Carcinoma)
Procedure, shortened: as §1

[3] = system: Hs-578-T (Breast Carcinoma)
Procedure, shortened: as §1

[4] = system: HCC1806 (Breast Carcinoma)
Procedure, shortened: as §1

[5] = system: B-CPAP (Thyroid Gland Carcinoma)
Procedure, shortened: as §1

[6] = system: KURAMOCHI (Ovarian Carcinoma)
Procedure, shortened: as §1

[7] = system: LNCaP-Clone-FGC (Prostate Carcinoma)
Procedure, shortened: as §1

[8] = system: NCI-H82 (Small Cell Lung Carcinoma)
Procedure, shortened: as §1

[9] = system: HO-1-N-1 (Oral Cavity Carcinoma)
Procedure, shortened: as §1

42-MG-BA (Glioblastoma) = system: 42-MG-BA (Glioblastoma)
Procedure, shortened: as §1

[10] = system: KYSE-520 (Esophageal Squamous Cell Carcinoma)
Procedure, shortened: as §1

[11] = system: Ramos-2G6-4C10 (Burkitt's Lymphoma)
Procedure, shortened: as §1

[12] = system: RO82-W-1 (Thyroid Gland Carcinoma)
Procedure, shortened: as §1

[13] = system: TCCSUP (Bladder Carcinoma)
Procedure, shortened: as §1

[14] = system: DoTc2-4510 (Cervical Carcinoma)
Procedure, shortened: as §1

[15] = system: LS-180 (Colorectal Carcinoma)
Procedure, shortened: as §1

[16] = system: DEL (T-Cell Non-Hodgkin's Lymphoma)
Procedure, shortened: as §1

[17] = system: Calu-3 (Lung Adenocarcinoma)
Procedure, shortened: as §1

[18] = system: ME-1 (Acute Myeloid Leukemia)
Procedure, shortened: as §1

Compound	Bliss excess [1]	Bliss excess (ES4 (Ewing's Sarcoma))	Bliss excess [2]	Bliss excess [3]	Bliss excess [4]	Bliss excess [5]	Bliss excess [6]	Bliss excess [7]	Bliss excess [8]	Bliss excess [9]	Bliss excess (42-MG-BA (Glioblastoma))	Bliss excess [10]	Bliss excess [11]	Bliss excess [12]	Bliss excess [13]	Bliss excess [14]	Bliss excess [15]	Bliss excess [16]	Bliss excess [17]	Bliss excess [18]
CN(CCO)CC[C@H](CSc1ccccc1)Nc1ccc(S(=O)(=O)NC(=O)c2ccc(N3CCC([C@@H](O)c4ccccc4-c4ccc(Cl)cc4)CC3)cc2)cc1S(=O)(=O)C(F)(F)F [AZD4320] + C[C@@H]1COCCN1C2=NC(=NC(=C2)C3(CC3)[S@](=N)(=O)C)C4=C5C=CNC5=NC=C4 [AZD6738] (first compound max 1 µM, 7x7, partner max 10 µM)	0.0368	0.0351	-0.0231	-0.136	0.0208	-0.0422	0.0158	-0.0328	-0.0251	0.026	0.0154	-0.0026	-0.0342	-0.0025	0.009	-0.0202	-0.0306	0.0294	-0.006	0.0166
CN(CCO)CC[C@H](CSc1ccccc1)Nc1ccc(S(=O)(=O)NC(=O)c2ccc(N3CCC([C@@H](O)c4ccccc4-c4ccc(Cl)cc4)CC3)cc2)cc1S(=O)(=O)C(F)(F)F [AZD4320] + C[C@@H](Nc1cc(F)cc(F)c1)c1cc(C(=O)N(C)C)cc2c(=O)cc(N3CCOCC3)oc12 [AZD8186] (first compound max 1 µM, 7x7, partner max 3 µM)	0.0327	-0.0507	-0.0054	-0.0314	0.0033	0.0064	0.0147	-0.0005	0.0359	0.0421	0.0453	-0.0712	0.175	-0.0581	-0.0348	0.0252	-0.0535	0.0784	0.002	0.0013
CN(CCO)CC[C@H](CSc1ccccc1)Nc1ccc(S(=O)(=O)NC(=O)c2ccc(N3CCC([C@@H](O)c4ccccc4-c4ccc(Cl)cc4)CC3)cc2)cc1S(=O)(=O)C(F)(F)F [AZD4320] + Cc1cc2ncnn2cc1Nc1ncc2c(n1)n(C1CCOCC1)c(=O)n2C [AZD7648] (first compound max 1 µM, 7x7, partner max 10 µM)	-0.0234	0.0147	-0.0011	0.0165	-0.058	-0.0275	-0.0239	-0.0622	0.012	-0.0407	-0.0244	-0.0365	0.0379	-0.0613	-0.0325	-0.0144	-0.0458	-0.0346	-0.0547	0.0237
CN(CCO)CC[C@H](CSc1ccccc1)Nc1ccc(S(=O)(=O)NC(=O)c2ccc(N3CCC([C@@H](O)c4ccccc4-c4ccc(Cl)cc4)CC3)cc2)cc1S(=O)(=O)C(F)(F)F [AZD4320] + Cn1cnc2c(F)c(Nc3ccc(Br)cc3Cl)c(C(=O)NOCCO)cc21 [Selumetinib] (first compound max 1 µM, 7x7, partner max 3 µM)	-0.0058	0.0074	-0.0201	-0.0492	0.0605	0.0228	0.0636	0.0009	-0.0009	-0.0533	0.0167	0.0306	0.138	-0.0139	0.0157	-0.021	0.0159	0.103	-0.0028	0.0484
COc1nnc2ccc(N3CCC(c4ccc(OCCN5CCN(C)C(=O)[C@H]5C)cc4)CC3)nn12 [AZD5153] + C=CCn1c(=O)c2cnc(Nc3ccc(N4CCN(C)CC4)cc3)nc2n1-c1cccc(C(C)(C)O)n1 [AZD1775] (first compound max 1 µM, partner max 1 µM)	-0.0413	-0.0223	-0.0117	-0.0661	-0.0704	-0.0803	-0.0373	-0.0733	-0.0656	-0.0551	-0.0577	-0.0399	-0.0657	0.038	-0.0497	-0.018	-0.049	-0.0679	-0.0678	-0.0446
COc1nnc2ccc(N3CCC(c4ccc(OCCN5CCN(C)C(=O)[C@H]5C)cc4)CC3)nn12 [AZD5153] + CC1(C)CCC(CN2CCN(c3ccc(C(=O)NS(=O)(=O)c4ccc(NCC5CCOCC5)c([N+](=O)[O-])c4)c(Oc4cnc5[nH]ccc5c4)c3)CC2)=C(c2ccc(Cl)cc2)C1 [Venetoclax] (first compound max 1 µM, 7x7, partner max 1 µM)	-0.043	-0.111	-0.0682	-0.0614	-0.0513	-0.0858	-0.0471	-0.0468	-0.103	-0.095	-0.0391	-0.0444	-0.0041	-0.0712	-0.0768	-0.0405	-0.0614	-0.0559	-0.0258	0.0529
COc1nnc2ccc(N3CCC(c4ccc(OCCN5CCN(C)C(=O)[C@H]5C)cc4)CC3)nn12 [AZD5153] + CCN(CCO)CCCOc1ccc2c(Nc3cc(CC(=O)Nc4cccc(F)c4)[nH]n3)ncnc2c1 [AZD2811] (first compound max 1 µM, 7x7, partner max 1 µM)	0.0346	0.0055	-0.0361	-0.0345	-0.042	-0.0367	-0.0149	-0.0081	-0.064	-0.0014	-0.0476	-0.0709	-0.0004	-0.0483	-0.0398	-0.0067	-0.111	-0.0462	-0.0303	-0.0534
